# Source: the supplement of paper PMC10307832
# How the values were obtained:
# Assay in all cases: relative viability (nuclei count vs DMSO), 5 days (fraction); higher = more cells survive
# HCC-78 = test system: HCC-78
# In short: (§1)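 Relative viability is defined as nuclei in treated wells over nuclei in vehicle wells. Duplicate plates were run and medians reported. Lung cancer cell lines in 1536-well plates were dosed by pin tool one day after seeding, with one drug or with a fixed anchor-drug dose plus five library-drug doses (not always all listed) in √10 steps, and nuclei were counted after 5 days.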
# CAL-12T = test system: CAL-12T
# In short: as §1
# HOP-62 = test system: HOP-62
# In short: as §1
# NCI-H1944 = test system: NCI-H1944
# In short: as §1
# NCI-H2347 = test system: NCI-H2347
# In short: as §1
# SK-LU-1 = test system: SK-LU-1
# In short: as §1
# 201T = test system: 201T
# In short: as §1
# BEN = test system: BEN
# In short: as §1
# NCI-H1915 = test system: NCI-H1915
# In short: as §1
# NCI-H838 = test system: NCI-H838
# In short: as §1
# NCI-H1355 = test system: NCI-H1355
# In short: as §1
# NCI-H650 = test system: NCI-H650
# In short: as §1
# NCI-H322M = test system: NCI-H322M
# In short: as §1
# NCI-H1793 = test system: NCI-H1793
# In short: as §1
# NCI-H441 = test system: NCI-H441
# In short: as §1
# LCLC-97TM1 = test system: LCLC-97TM1
# In short: as §1
# LOU-NH91 = test system: LOU-NH91
# In short: as §1
# NCI-H2126 = test system: NCI-H2126
# In short: as §1
# NCI-H3122 = test system: NCI-H3122
# In short: as §1
# NCI-H1395 = test system: NCI-H1395
# In short: as §1
# NCI-H1651 = test system: NCI-H1651
# In short: as §1
# SW 1573 = test system: SW 1573
# In short: as §1
compound,measurement,setting,value
CN1CCN(CCOc2cc(OC3CCOCC3)c3c(Nc4c(Cl)ccc5c4OCO5)ncnc3c2)CC1 [Saracatinib] + O=C(CCCCCCC(=O)Nc1ccccc1)NO [Vorinostat] (partner 1 µM),relative viability,HCC-78; first compound 0.02 µM,0.459
same,relative viability,HCC-78; first compound 0.6325 µM,0.476
same,relative viability,HCC-78; first compound 2 µM,0.427
same,relative viability,CAL-12T; first compound 0.02 µM,0.804
same,relative viability,CAL-12T; first compound 0.2 µM,0.764
same,relative viability,CAL-12T; first compound 0.6325 µM,0.91
same,relative viability,CAL-12T; first compound 2 µM,0.696
same,relative viability,HOP-62; first compound 0.02 µM,0.624
same,relative viability,HOP-62; first compound 0.2 µM,0.611
same,relative viability,HOP-62; first compound 0.6325 µM,0.769
same,relative viability,HOP-62; first compound 2 µM,0.618
same,relative viability,NCI-H1944; first compound 0.02 µM,0.54
same,relative viability,NCI-H1944; first compound 0.2 µM,0.542
same,relative viability,NCI-H1944; first compound 0.6325 µM,0.509
same,relative viability,NCI-H1944; first compound 2 µM,0.358
same,relative viability,NCI-H2347; first compound 0.02 µM,0.558
same,relative viability,NCI-H2347; first compound 0.2 µM,0.413
same,relative viability,NCI-H2347; first compound 0.6325 µM,0.719
same,relative viability,NCI-H2347; first compound 2 µM,0.622
same,relative viability,SK-LU-1; first compound 0.02 µM,0.758
same,relative viability,SK-LU-1; first compound 0.2 µM,0.657
same,relative viability,SK-LU-1; first compound 0.6325 µM,0.657
same,relative viability,SK-LU-1; first compound 2 µM,0.509
same,relative viability,201T; first compound 0.02 µM,0.971
same,relative viability,201T; first compound 0.2 µM,0.868
same,relative viability,201T; first compound 0.6325 µM,0.799
same,relative viability,201T; first compound 2 µM,0.658
same,relative viability,BEN; first compound 0.02 µM,0.54
same,relative viability,BEN; first compound 0.2 µM,0.57
same,relative viability,BEN; first compound 0.6325 µM,0.54
same,relative viability,BEN; first compound 2 µM,0.576
same,relative viability,NCI-H1915; first compound 0.02 µM,0.472
same,relative viability,NCI-H1915; first compound 0.2 µM,0.462
same,relative viability,NCI-H1915; first compound 0.6325 µM,0.477
same,relative viability,NCI-H1915; first compound 2 µM,0.477
same,relative viability,NCI-H838; first compound 0.02 µM,0.685
same,relative viability,NCI-H838; first compound 0.2 µM,0.681
same,relative viability,NCI-H838; first compound 0.6325 µM,0.721
same,relative viability,NCI-H838; first compound 2 µM,0.765
same,relative viability,NCI-H1355; first compound 0.02 µM,0.668
same,relative viability,NCI-H1355; first compound 0.2 µM,0.62
same,relative viability,NCI-H1355; first compound 0.6325 µM,0.7
same,relative viability,NCI-H1355; first compound 2 µM,0.587
same,relative viability,NCI-H650; first compound 0.02 µM,0.5
same,relative viability,NCI-H650; first compound 0.2 µM,0.365
same,relative viability,NCI-H650; first compound 0.6325 µM,0.384
same,relative viability,NCI-H650; first compound 2 µM,0.857
same,relative viability,NCI-H322M; first compound 0.02 µM,0.73
same,relative viability,NCI-H322M; first compound 0.2 µM,0.744
same,relative viability,NCI-H322M; first compound 0.6325 µM,0.702
same,relative viability,NCI-H322M; first compound 2 µM,0.37
same,relative viability,NCI-H1793; first compound 0.02 µM,0.878
same,relative viability,NCI-H1793; first compound 0.2 µM,0.482
same,relative viability,NCI-H1793; first compound 0.6325 µM,0.842
same,relative viability,NCI-H1793; first compound 2 µM,0.601
same,relative viability,NCI-H441; first compound 0.02 µM,0.84
same,relative viability,NCI-H441; first compound 0.2 µM,0.731
same,relative viability,NCI-H441; first compound 0.6325 µM,0.913
same,relative viability,NCI-H441; first compound 2 µM,0.94
same,relative viability,LCLC-97TM1; first compound 0.02 µM,0.775
same,relative viability,LCLC-97TM1; first compound 0.2 µM,0.411
same,relative viability,LCLC-97TM1; first compound 0.6325 µM,0.839
same,relative viability,LCLC-97TM1; first compound 2 µM,0.554
same,relative viability,LOU-NH91; first compound 0.02 µM,0.87
same,relative viability,LOU-NH91; first compound 0.2 µM,0.696
same,relative viability,LOU-NH91; first compound 0.6325 µM,0.903
same,relative viability,LOU-NH91; first compound 2 µM,0.628
same,relative viability,NCI-H2126; first compound 0.02 µM,0.936
same,relative viability,NCI-H2126; first compound 0.2 µM,0.647
same,relative viability,NCI-H2126; first compound 0.6325 µM,0.713
same,relative viability,NCI-H2126; first compound 2 µM,0.539
same,relative viability,NCI-H3122; first compound 0.02 µM,0.984
same,relative viability,NCI-H3122; first compound 0.2 µM,0.553
same,relative viability,NCI-H3122; first compound 0.6325 µM,0.891
same,relative viability,NCI-H3122; first compound 2 µM,0.788
same,relative viability,NCI-H1395; first compound 0.02 µM,0.766
same,relative viability,NCI-H1395; first compound 0.2 µM,0.632
same,relative viability,NCI-H1395; first compound 0.6325 µM,0.706
same,relative viability,NCI-H1395; first compound 2 µM,0.464
same,relative viability,NCI-H1651; first compound 0.02 µM,0.598
same,relative viability,NCI-H1651; first compound 0.2 µM,0.547
same,relative viability,NCI-H1651; first compound 0.6325 µM,0.598
same,relative viability,NCI-H1651; first compound 2 µM,0.554
same,relative viability,SW 1573; first compound 0.02 µM,0.699
same,relative viability,SW 1573; first compound 0.2 µM,0.702
same,relative viability,SW 1573; first compound 0.6325 µM,0.664
same,relative viability,SW 1573; first compound 2 µM,0.47
